# Values joined by “and” are separate entries in the source; they are usually repeats but may differ in a detail not shown here. Equal entries are not always repeated. Where two headings read alike, the source gives them in different places.
# Key:
# INa peak [1] = settings: read-out: INa peak IC50; CHO, PT ref Delaunois et al. (2021); cited from earlier work
# hERG1 [2] = molecular target: T1, hERG1 (Homo sapiens, UniProt Q12809); assay: Automated patch-clamp; settings: for Hill coefficient nH, hERG inhibition: automated patch-clamp, RT
# hKv7.1+hMinK = hKv7.1+hMinK (Homo sapiens, UniProt P51787); assay: IKs double-step voltage protocol, HEK293 cells; type: cell-based; settings: for effect on plateau IKs level: highest concentration applied (100 μM)
# [3] = tested on: peak L-type Ca2+ current (ICaL) in Pluricyte cardiomyocytes; assay: hiPSC-CM β-escin-perforated voltage-clamp: peak ICaL; type: cell-based; settings: Homo sapiens, Cardiomyocyte; for IC50: read-out: ICaL IC50
# hKir2.1 = molecular target: T2, hKir2.1 (Homo sapiens, UniProt P63252); settings: HEK-293T, read-out: IK1 (hKir2.1) IC50
# T2 sequence (P63252 1-427): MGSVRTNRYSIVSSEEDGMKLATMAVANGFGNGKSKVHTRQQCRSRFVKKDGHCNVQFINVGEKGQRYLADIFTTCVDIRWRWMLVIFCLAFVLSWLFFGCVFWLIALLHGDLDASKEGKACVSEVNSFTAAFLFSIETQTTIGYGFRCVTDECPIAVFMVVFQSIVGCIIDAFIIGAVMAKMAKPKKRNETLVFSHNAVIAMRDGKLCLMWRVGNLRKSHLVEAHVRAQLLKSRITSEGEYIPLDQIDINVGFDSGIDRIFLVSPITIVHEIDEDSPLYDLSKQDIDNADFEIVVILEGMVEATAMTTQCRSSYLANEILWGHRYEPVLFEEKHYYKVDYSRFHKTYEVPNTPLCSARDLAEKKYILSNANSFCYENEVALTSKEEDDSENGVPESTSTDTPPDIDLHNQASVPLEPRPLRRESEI
# hNav1.5 [4] = molecular target: T3, hNav1.5 (Homo sapiens, UniProt Q14524); assay: Late INa in presence of ATX-II 20 nM at RT, HEK293 cells; settings: for IC50: INa late IC50, hNav1.5, ATX-II 20 nM, end of tail current at 0 mV
# ICaL [5] = settings: cited from earlier work
# [6] = cited from earlier work
# IKr [7] = settings: cited from earlier work
# ICaL [8] = settings: read-out: ICaL IC50; CHO, RT ref Delaunois et al. (2021); cited from earlier work
# hERG1 [9] = molecular target: T1, hERG1; assay: Manual whole-cell patch-clamp, standard 2-step hERG protocol at RT, HEK293T; settings: for Hill coefficient nH, hERG inhibition: manual patch-clamp, RT
# [10] = tested on: peak voltage-dependent Na+ current (INa) in Pluricyte cardiomyocytes; assay: hiPSC-CM β-escin-perforated voltage-clamp: peak INa; type: cell-based; settings: Homo sapiens, Cardiomyocyte; for IC50: read-out: peak INa IC50 in hiPSC-CM
# ICaL [11] = settings: read-out: ICaL IC50; HEK293 ref Jordaan et al. (2021); cited from earlier work
# [12] = tested on: steady funny current (If) in Pluricyte cardiomyocytes; assay: hiPSC-CM β-escin-perforated voltage-clamp: steady funny current; type: cell-based; settings: Homo sapiens, Cardiomyocyte, read-out: If IC50
# hNav1.5 [13] = molecular target: T3, hNav1.5; assay: Peak INa in presence of ATX-II 20 nM at RT, HEK293 cells; settings: for IC50: INa peak IC50, hNav1.5, ATX-II 20 nM, Hill fit
# INa late = settings: read-out: INa late IC50, CHO, cited from earlier work
# IKr [14] = settings: read-out: IKr IC50, cited from earlier work
# hNav1.5 [15] = molecular target: T3, hNav1.5; assay: Peak INa at PT, manual patch-clamp, HEK293 cells; type: cell-based; settings: for INa peak Hill coefficient nH: PT
# INa peak [16] = settings: read-out: INa peak IC50; HEK293 ref Jordaan et al. (2021); cited from earlier work
# If = settings: read-out: If IC50, cited from earlier work
# hERG (peak IKr) = assay: hiPSC-CM β-escin-perforated voltage-clamp: peak IKr; type: cell-based, human; settings: human
# [17] = tested on: peak hERG current (IKr) in Pluricyte cardiomyocytes; assay: as above; type: cell-based, human; settings: 5 μM; hiPSC-CM; individual experiments and average ± SD
# INa peak [18] = settings: human atrial myocytes ref Borsini et al. (2012), cited from earlier work
# INa peak [19] = settings: read-out: INa peak IC50; cat Purkinje fibers ref Sánchez-Chapula et al. (2001); cited from earlier work
# Ito = settings: read-out: Ito IC50; rat ventricular myocytes ref Wagner et al. (2010); cited from earlier work
# IK1 = settings: read-out: IK1 IC50; HEK293 ref Noujaim et al. (2011); cited from earlier work
# hERG1 [20] = molecular target: T1, hERG1; assay: Manual patch-clamp, standard 2-step hERG protocol at PT; type: cell-based
# ICaL [21] = settings: read-out: ICaL IC50; cat Purkinje fibers ref Sánchez-Chapula et al. (2001); cited from earlier work
# IKr [22] = settings: read-out: IKr IC50, cited from earlier work; remark: listed apart in the source
# IKr [23] = settings: read-out: IKr IC50; Xenopus laevis oocytes ref Sánchez-Chapula et al. (2002); cited from earlier work
# IKs = settings: human atrial myocytes ref Borsini et al. (2012), cited from earlier work
# [24] = read-out: peak ICaL, % of control values
# [25] = 3 μM, guinea pig SAN cells ref Capel et al. (2015)
# [26] = read-out: peak INa, % of control values
# [27] = CHO, PT ref Delaunois et al. (2021)
# [28] = CHO, PT ref TeBay et al. (2021)
# [29] = HEK293, RT ref Delaunois et al. (2021)
# [30] = standard 12-compounds panel ref Dutta et al., (2017)
# T3 sequence (Q14524 whole entry): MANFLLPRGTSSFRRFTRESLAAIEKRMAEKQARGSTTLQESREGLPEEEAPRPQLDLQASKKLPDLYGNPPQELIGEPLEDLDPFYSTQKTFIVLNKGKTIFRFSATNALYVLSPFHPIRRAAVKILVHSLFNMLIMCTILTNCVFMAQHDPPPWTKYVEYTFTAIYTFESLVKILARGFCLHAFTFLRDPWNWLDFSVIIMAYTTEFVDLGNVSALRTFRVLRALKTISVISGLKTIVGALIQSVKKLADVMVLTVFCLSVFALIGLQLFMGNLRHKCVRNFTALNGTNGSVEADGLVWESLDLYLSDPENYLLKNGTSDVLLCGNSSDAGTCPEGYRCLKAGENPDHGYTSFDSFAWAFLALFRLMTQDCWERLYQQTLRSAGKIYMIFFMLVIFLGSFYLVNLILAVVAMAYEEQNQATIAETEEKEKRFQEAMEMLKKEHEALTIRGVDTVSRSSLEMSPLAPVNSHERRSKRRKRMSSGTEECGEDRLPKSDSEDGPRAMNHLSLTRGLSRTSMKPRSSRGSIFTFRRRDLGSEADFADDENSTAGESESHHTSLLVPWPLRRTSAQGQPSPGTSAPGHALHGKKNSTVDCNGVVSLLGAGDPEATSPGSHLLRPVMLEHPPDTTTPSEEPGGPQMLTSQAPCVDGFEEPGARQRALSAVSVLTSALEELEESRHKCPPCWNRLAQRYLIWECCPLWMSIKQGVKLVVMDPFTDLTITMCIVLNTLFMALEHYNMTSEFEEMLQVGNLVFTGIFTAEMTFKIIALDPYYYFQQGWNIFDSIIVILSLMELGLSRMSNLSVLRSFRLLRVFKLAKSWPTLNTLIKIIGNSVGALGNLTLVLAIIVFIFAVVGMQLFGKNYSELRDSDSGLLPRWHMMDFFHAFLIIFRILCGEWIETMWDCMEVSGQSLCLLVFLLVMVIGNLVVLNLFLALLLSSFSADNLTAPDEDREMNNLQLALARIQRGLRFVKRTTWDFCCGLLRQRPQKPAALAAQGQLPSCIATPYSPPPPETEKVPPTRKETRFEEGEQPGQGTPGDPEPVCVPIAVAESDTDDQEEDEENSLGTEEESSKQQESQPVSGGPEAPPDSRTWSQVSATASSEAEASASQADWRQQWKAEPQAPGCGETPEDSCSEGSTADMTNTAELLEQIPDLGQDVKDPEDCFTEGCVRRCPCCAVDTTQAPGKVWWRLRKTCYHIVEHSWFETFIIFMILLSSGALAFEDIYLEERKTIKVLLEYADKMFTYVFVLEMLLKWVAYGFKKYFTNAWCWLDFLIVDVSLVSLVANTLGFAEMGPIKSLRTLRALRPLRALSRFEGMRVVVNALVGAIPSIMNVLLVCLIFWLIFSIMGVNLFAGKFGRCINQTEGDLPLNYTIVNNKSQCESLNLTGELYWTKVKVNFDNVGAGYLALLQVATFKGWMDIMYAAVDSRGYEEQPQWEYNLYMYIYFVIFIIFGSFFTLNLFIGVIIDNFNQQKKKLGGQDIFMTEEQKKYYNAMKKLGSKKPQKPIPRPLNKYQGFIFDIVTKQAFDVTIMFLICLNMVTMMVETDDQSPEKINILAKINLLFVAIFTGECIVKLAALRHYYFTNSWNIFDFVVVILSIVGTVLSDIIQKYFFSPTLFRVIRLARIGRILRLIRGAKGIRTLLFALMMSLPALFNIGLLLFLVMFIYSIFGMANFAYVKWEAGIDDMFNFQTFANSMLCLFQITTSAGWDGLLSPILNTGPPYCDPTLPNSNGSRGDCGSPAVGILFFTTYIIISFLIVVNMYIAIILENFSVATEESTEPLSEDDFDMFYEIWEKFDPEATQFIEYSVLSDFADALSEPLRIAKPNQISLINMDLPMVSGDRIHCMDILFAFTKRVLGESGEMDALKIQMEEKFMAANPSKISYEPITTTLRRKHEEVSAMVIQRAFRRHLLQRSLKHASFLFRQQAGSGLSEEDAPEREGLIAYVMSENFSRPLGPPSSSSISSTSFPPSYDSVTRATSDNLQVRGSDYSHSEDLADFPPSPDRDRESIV
# Chain of hKv7.1+hMinK (P51787 whole entry): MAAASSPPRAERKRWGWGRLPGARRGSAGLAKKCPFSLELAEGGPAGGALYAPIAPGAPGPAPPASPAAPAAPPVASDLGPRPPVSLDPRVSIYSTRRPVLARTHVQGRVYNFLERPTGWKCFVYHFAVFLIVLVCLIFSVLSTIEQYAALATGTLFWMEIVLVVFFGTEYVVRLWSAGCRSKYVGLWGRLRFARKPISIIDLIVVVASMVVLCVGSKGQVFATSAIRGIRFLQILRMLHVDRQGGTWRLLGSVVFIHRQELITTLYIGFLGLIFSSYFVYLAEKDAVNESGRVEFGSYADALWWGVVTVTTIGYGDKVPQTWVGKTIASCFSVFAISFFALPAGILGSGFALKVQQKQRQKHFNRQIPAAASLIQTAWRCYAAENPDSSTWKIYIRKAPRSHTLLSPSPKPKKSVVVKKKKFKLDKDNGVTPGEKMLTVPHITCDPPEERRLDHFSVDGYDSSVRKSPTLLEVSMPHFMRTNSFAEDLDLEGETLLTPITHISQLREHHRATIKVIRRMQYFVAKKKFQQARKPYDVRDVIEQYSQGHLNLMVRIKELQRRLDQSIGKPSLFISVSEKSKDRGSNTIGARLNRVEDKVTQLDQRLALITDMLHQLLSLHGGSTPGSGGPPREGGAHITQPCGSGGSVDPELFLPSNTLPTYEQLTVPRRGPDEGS
# T1 sequence (Q12809 whole entry): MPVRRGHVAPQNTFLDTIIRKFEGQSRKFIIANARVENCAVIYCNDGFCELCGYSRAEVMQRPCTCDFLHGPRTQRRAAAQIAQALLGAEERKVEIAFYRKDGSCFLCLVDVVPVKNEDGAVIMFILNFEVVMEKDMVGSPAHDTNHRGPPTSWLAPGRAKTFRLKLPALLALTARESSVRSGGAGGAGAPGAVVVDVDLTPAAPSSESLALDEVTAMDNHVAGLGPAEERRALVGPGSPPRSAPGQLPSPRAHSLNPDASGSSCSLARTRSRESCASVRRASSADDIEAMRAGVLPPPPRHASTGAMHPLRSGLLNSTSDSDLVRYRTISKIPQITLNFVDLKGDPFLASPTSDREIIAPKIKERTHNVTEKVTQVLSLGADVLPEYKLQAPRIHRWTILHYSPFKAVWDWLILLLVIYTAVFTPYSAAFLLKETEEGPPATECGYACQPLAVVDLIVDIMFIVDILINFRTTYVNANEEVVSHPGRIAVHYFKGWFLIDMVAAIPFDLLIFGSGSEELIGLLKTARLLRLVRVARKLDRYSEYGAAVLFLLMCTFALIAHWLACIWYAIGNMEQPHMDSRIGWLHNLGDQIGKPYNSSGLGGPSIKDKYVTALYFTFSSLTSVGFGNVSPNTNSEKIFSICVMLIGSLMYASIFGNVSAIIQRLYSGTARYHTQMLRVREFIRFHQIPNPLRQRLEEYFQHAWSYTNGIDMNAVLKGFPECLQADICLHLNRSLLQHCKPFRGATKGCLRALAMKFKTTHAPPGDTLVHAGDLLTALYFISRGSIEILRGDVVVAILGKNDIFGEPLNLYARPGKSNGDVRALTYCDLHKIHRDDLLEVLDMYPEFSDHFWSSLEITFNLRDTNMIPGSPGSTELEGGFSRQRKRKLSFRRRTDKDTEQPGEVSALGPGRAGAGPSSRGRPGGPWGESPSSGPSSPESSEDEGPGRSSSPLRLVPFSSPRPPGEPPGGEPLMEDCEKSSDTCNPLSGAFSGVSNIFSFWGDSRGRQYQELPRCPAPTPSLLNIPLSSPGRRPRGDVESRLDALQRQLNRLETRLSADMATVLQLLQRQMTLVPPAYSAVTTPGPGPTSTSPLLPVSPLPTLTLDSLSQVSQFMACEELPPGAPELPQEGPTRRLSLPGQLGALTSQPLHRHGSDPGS
compound,measurement,setting,value
CCN(CCO)CCCC(C)Nc1ccnc2cc(Cl)ccc12 (stereo not shown) [hydroxychloroquine],IC50,INa peak [1],17 µM
same,IC50,hERG1 [2],3.42 µM
same,"Hill coefficient nH, hERG inhibition",hERG1 [2],1.02
same,IC50,hKv7.1+hMinK,> 100 µM
same,effect on plateau IKs level,hKv7.1+hMinK,only slightly inhibited
same,IC50,[3],90 µM
same,activity at 10 µM,[3]; [24],90 ± 12%
same,potency estimated from few doses,hKir2.1,29.3 µM
same,INa late Hill coefficient nH,hNav1.5 [4],0.89
same,IC50,hNav1.5 [4],64.9 µM
same,ICaL % block,ICaL [5]; [25],12%
same,IC50,"ICaL [5]; read-out: ICaL IC50, guinea pig SAN cells, PT ref Capel et al. (2015)",22 µM
same,Cmax,[6]; Table 2 ref Yao et al. (2020),495 nM
same,"Cmax, maximal free plasma therapeutic concentration","[6]; usual doses ref Yao et al., 2020",0.495 μM and 215 ng/ml
same,"Cmax, maximal free plasma therapeutic concentration","[6]; usual doses ref Yao et al., 2020, listed as Hydroxychloroquine",0.495 μM and 215 ng/ml
same,IKr % block,IKr [7]; [25],35%
same,IC50,"IKr [7]; read-out: IKr IC50, guinea pig SAN cells, PT ref Capel et al. (2015)",5.6 µM
same,IC50,ICaL [8],66.3 µM
same,IC50,hERG1 [9],4.79 µM
same,"Hill coefficient nH, hERG inhibition",hERG1 [9],0.85
same,IC50,[10],52.5 µM
same,activity at 10 µM,[10]; [26],84 ± 16%
same,IC50,ICaL [11],7.64 µM
same,IC50,[12],> 990 µM
same,INa peak Hill coefficient nH,hNav1.5 [13],0.81
same,IC50,hNav1.5 [13],96.2 µM
same,IC50,INa late; PT ref Delaunois et al. (2021),21.4 µM
same,IC50,INa late; RT ref Delaunois et al. (2021),92.9 µM
same,IC50,IKr [14]; CHO ref Jordaan et al. (2021),9.7 µM
same,IC50,IKr [14]; [27],2.66 µM
same,IC50,IKr [14]; [28],3.78 µM
same,IC50,"IKr [14]; CHO, RT ref Delaunois et al. (2021)",6.97 µM
same,IC50,hNav1.5 [15],42.4 µM
same,INa peak Hill coefficient nH,hNav1.5 [15],1.02
same,IC50,INa peak [16],> 300 µM
same,IC50,"If; HEK293, PT ref Delaunois et al. (2021)",> 300 µM
same,IC50,If; [29],372 µM
CCN(CC)CCCC(C)Nc1ccnc2cc(Cl)ccc12 (stereo not shown) [chloroquine],IC50,INa peak [1],14 µM
same,"Hill coefficient nH, hERG inhibition",hERG1 [2],1.36
same,activity at 5 µM,hERG (peak IKr),37.2%
same,potency estimated from few doses,hERG (peak IKr),2.96 µM
same,peak IKr % inhibition,[17],62.78 ± 11.12%
same,IC50,hKv7.1+hMinK,> 100 µM
same,effect on plateau IKs level,hKv7.1+hMinK,only slightly inhibited
same,IC50,[3],30.7 µM
same,activity at 5 µM,[3]; [24],86 ± 9%
same,potency estimated from few doses,hKir2.1,5.86 µM
same,INa peak % block,INa peak [18]; 30 μM,42.6%
same,IC50,INa peak [18]; read-out: INa peak IC50,40.4 µM
same,IC50,INa peak [19],12.2 µM
same,INa late Hill coefficient nH,hNav1.5 [4],0.85
same,IC50,hNav1.5 [4],30.4 µM
same,Cmax,[6]; Table 2 ref Borsini et al. (2012),410 nM
same,"Cmax, maximal free plasma therapeutic concentration","[6]; usual doses ref Borsini et al., 2012",0.41 µM
same,IC50,ICaL [8],17.9 µM
same,"Hill coefficient nH, hERG inhibition",hERG1 [9],0.90
same,IC50,[10],45 µM
same,inhibition at 5 µM,[10]; read-out: peak INa average inhibition,10%
same,activity at 5 µM,[10]; [26],90 ± 12%
same,IC50,ICaL [11],3.05 µM
same,IC50,[12],> 162 µM
same,INa peak Hill coefficient nH,hNav1.5 [13],0.98
same,IC50,hNav1.5 [13],159 µM
same,IC50,INa late; PT ref Delaunois et al. (2021),11.6 µM
same,IC50,INa late; RT ref Delaunois et al. (2021),109 µM
same,IC50,Ito,4600 µM
same,IC50,IK1,1.2 µM
same,"Hill coefficient nH, hERG inhibition",hERG1 [20],1.25
same,IC50,ICaL [21],21.2 µM
same,IC50,"IKr [22]; HEK293, RT ref Borsini et al. (2012)",0.96 µM
same,IC50,"IKr [22]; HEK293, RT ref Traebert et al. (2004)",2.5 µM
same,IC50,IKr [14]; CHO ref Jordaan et al. (2021),7.77 µM
same,IC50,IKr [14]; [27],1.03 µM
same,IC50,IKr [14]; [28],1.47 µM
same,IC50,IKr [23],8.4 µM
same,IC50,hNav1.5 [15],39.3 µM
same,INa peak Hill coefficient nH,hNav1.5 [15],0.97
same,IKs % block,IKs; 10 μM,8%
same,IC50,IKs; read-out: IKs IC50,115 µM
same,IC50,INa peak [16],8.48 µM
same,IC50,If; [29],228 µM
Cc1cccc(C)c1OCC(C)N (stereo not shown) [Mexiletine],Cmax,[6]; [30],4130 nM
CC(C)NCC(O)c1ccc(NS(C)(=O)=O)cc1 (stereo not shown) [Sotalol],Cmax,[6]; [30],14700 nM
CC(C)(C)c1ccc(C(O)CCCN2CCC(C(O)(c3ccccc3)c3ccccc3)CC2)cc1 (stereo not shown) [Terfenadine],Cmax,[6]; [30],4 nM
COc1ccc([C@@H]2Sc3ccccc3N(CCN(C)C)C(=O)[C@@H]2OC(C)=O)cc1 [Diltiazem],Cmax,[6]; [30],122 nM
CN(C)CCCN1c2ccccc2Sc2ccc(Cl)cc21 [Chlorpromazine],Cmax,[6]; [30],38 nM
Cc1nccn1CC1CCc2c(c3ccccc3n2C)C1=O (stereo not shown) [Ondansetron],Cmax,[6]; [30],139 nM
COc1ccccc1OCC(O)CN1CCN(CC(=O)Nc2c(C)cccc2C)CC1 (stereo not shown) [Ranolazine],Cmax,[6]; [30],1950 nM

# Source: paper PMC8590616 (European Journal of Pharmacology, 2021)
